In patent US8895514B2, “Composition of tumor-associated peptides and related anti-cancer vaccine for the treatment of glioblastoma (GBM) and other cancers” (Immatics Biotechnologies GmbH, priority 2008, dated 2014):
Where no end group is shown, it is not given here.

Assays:
CD8+ T cells [1] = experiment: In vitro priming of CD8+ T cells with pMHC/anti-CD28 coated beads, tetramer readout; format: cell-based, human; conditions: for Positive donors/donors tested / Positive wells/wells tested: healthy donors, CD8+ cells stimulated with high density beads
Method: To perform in vitro stimulations by artificial antigen presenting cells (aAPC) loaded with peptide-MHC complex (pMHC) and anti-CD28 antibody, first we isolated PBMCs (peripheral blood mononuclear cells) from fresh HLA-A*02+ buffy coats by using standard density gradient separation medium (PAA, Cölbe, Germany). Buffy coats were either obtained from the Blood Bank Tübingen or from the Katharinenhospital Stuttgart. Isolated PBMCs were incubated overnight in T-cell medium (TCM) for human in vitro priming consisting of RPMI-Glutamax (Invitrogen, Karlsruhe, Germany) supplemented with 10% heat inactivated human AB serum (PAA, Cölbe, Germany), 100 U/ml Penicillin/100 μg/ml Streptomycin (Cambrex, Verviers, Belgium), 1 mM sodium pyruvate (CC Pro, Neustadt, Germany) and 20 μg/ml Gentamycin (Cambrex). CD8+ lymphocytes were isolated using the CD8+ MACS positive selection kit (Miltenyi, Bergisch Gladbach, Germany) according to the manufacturer's instructions.
800.000 beads/200 μl were coated in 96-well plates in the presence of 600 ng biotin anti-CD28 plus 200 ng relevant biotin-pMHC (high density beads) or 2 ng relevant plus 200 ng irrelevant (pMHC library) MHC (low density beads). Stimulations were initiated in 96-well plates by co-incubating 1×10^6 CD8+ T cells with 2×10^5 washed coated beads in 200 μl TCM supplemented with 5 ng/ml IL-12 (PromoCell) for 3-4 days at 37° C. Half of the medium was then exchanged by fresh TCM supplemented with 80 U/ml IL-2 and incubating was continued for 3-4 days at 37° C. This stimulation cycle was performed for a total of three times.
Results shown have been obtained by stimulation of CD8+ cells with high density beads. As different human serum lots may highly affect the immunogenicity results, only assays in which one and the same serum lot was used, were evaluated together.

HLA-A*0201 = HLA-A*0201 (Homo sapiens, UniProt P04439, /I218V/L300P/L318F/N151K/N90K/P208A/P217A/Q86G/Q94H/R138H/R169H/T345S); experiment: ELISA-based MHC refolding assay; format: binding
Method: The amount of de novo-folded HLA/peptide complexes was determined by a quantitative ELISA. Dissociation constants (KD values) were calculated using a standard curve recorded from dilutions of a calibrant HLA/peptide complex.

CD8+ T cells [2] = experiment: In vitro priming of CD8+ T cells with pMHC/anti-CD28 coated beads, tetramer readout; format: cell-based, human; conditions: small number of glioblastoma patients
[3] = out of 18 patients treated, recurrent GBM, intermediate results; cited from earlier work
[4] = tested on: HLA-DR broad antigens (HLA-DR1 to DR7); experiment: ProImmune REVEAL MHC:peptide binding assay; design: species or system human; conditions: relative to pass/fail control; MET-005 tested as two overlapping 15-mers
Method: The ProImmune REVEAL™ technology employs in vitro HLA-DR assembly assays to determine the on-rates for the MHC:peptide complex as one major determinant of the binding constant of individual peptides. The assay was performed by ProImmune (Oxford, UK). At a fixed time point, the amount of intact MHC:peptide complexes is measured and compared with the amount for a pass/fail control (relative weak binder). A strong, promiscuous HLA-DR binder is included as positive control. Values indicate amount of binding for the individual peptides and HLA-DR molecules relative to the pass/fail control.
In this assay, binding was compared to that of a pass/fail control binder, and to a positive control peptide for each HLA-DR antigen.

anti-survivin T cells = experiment: Phase I/II vaccination study, T-cell response to Survivin peptide (IFN-g ELISPOT, +/-ICS); format: in vivo, human

Compound | Positive donors/donors tested (CD8+ T cells [1]) [%] | Positive wells/wells tested (CD8+ T cells [1]) [%] | further results
CSCC[C@H](NC(=O)[C@@H](N)[C@@H](C)O)C(=O)N[C@@H](CC(C)C)C(=O)N[C@@H](C)C(=O)N[C@@H](CCCNC(=N)N)C(=O)N[C@@H](CC(C)C)C(=O)N[C@@H](C)C(=O)N[C@@H](CO)C(=O)N[C@@H](C)C(=O)O [CSP-001] | 100 | 57 | Kd (HLA-A*0201; recombinant HLA-A*0201 with b2m, quantitative ELISA, read-out: Dissociation constant (KD) to HLA-A*0201): 2.05 nM
AIIDGVESV (listed as Homo sapiens) [PTP-003] | 50 | 17 | –
ALWAWPSEL (listed as Homo sapiens) [BCA-002] | 75 | 35 | in vitro immunogenicity in glioblastoma patients (CD8+ T cells [2]): immunogenic to a similar extent compared with healthy donors; immunogenicity in comparison to another BCAN-derived peptide (IMA-BCA-001) (CD8+ T cells [1]): very immunogenic
AMG102: human neutralizing antibody against HGF | – | – | patients with minor response [3]: 1; patients with partial response [3]: 1
AMTQLLAGV (listed as Homo sapiens) [TNC-001] | 60 | 30 | –
GLWHHQTEV (listed as Homo sapiens) [NRCAM-001] | 86 | 39 | –
KIQEILTQV (listed as Homo sapiens) [IGF2BP3-001] | 50 | 21 | –
KVFAGIPTV (listed as Homo sapiens) [PTP-005] | 100 | 52 | –
LTFGDVVAV (listed as Homo sapiens) [FABP7-001] | 100 | 27 | –
NLDTLMTYV (listed as Homo sapiens) [NLGN4X-001] | 100 | 62 | in vitro immunogenicity in glioblastoma patients (CD8+ T cells [2]): immunogenic to a similar extent compared with healthy donors
SLWAGVVVL (listed as Homo sapiens) [CHI-001] | 100 | 63 | in vitro immunogenicity in glioblastoma patients (CD8+ T cells [2]): immunogenic to a similar extent compared with healthy donors
TFSYVDPVITSISPKYG (listed as Homo sapiens) [MET-005, MET-derived elongated HLA class I TUMAP] | – | – | HLA-DR antigens for which in vitro binding was obtained [4]: HLA-DR11; HLA class I binding of the full-length elongated peptide (HLA-A*0201): does not possess HLA class I binding capacities
TLGEFLKLDRERAKN (listed as Homo sapiens) [BIR-002] | – | – | HLA-DR antigens for which in vitro binding was obtained [4]: HLA-DR1, 3, 4 and 11; patients with induction of an anti-survivin T-cell response upon vaccination (anti-survivin T cells; among the 16 reacting patients): 12; patients with pre existing anti-Survivin T cells (anti-survivin T cells; among the 16 reacting patients): 2; immunogenicity in clinical trial in prostate cancer patients with different HLA-DR alleles (anti-survivin T cells; in vivo): broad immunogenicity; patients who reacted to the peptide (IFN-g ELISPOT, +/-ICS) (anti-survivin T cells; of the 19 patients vaccinated, prostate carcinoma): 16
YVDPVITSI [MET-001] | 67 | 39 | –
